# Key:
# Assay in all cases: Test B pre-/postemergence plant response
# Assay type in all cases: in vivo
# [1] = tested on: downy bromegrass (Bromus tectorum); conditions: for Bromegrass, Downy plant response rating (0 to 100 scale): 0 is no effect
# Procedure, shortened: (§1)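 Visual injury, 0–100 scale (100 = complete control), rated against controls after 13 to 15 days in greenhouse. Pre-emergence: seeds in loam/sand soil, treated at planting. Post-emergence: 1- to 4-leaf plants (2 to 18 cm) in peat/vermiculite medium. Compounds formulated in non-phytotoxic solvent with surfactant.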
# [2] = tested on: Surinam grass (Brachiaria decumbens); conditions: Postemergence
# Procedure, shortened: as §1
# [3] = tested on: Italian ryegrass (Lolium multiflorum); conditions: for Plant response rating, Ryegrass, Italian: Postemergence
# Procedure, shortened: as §1
# [4] = tested on: blackgrass (Alopecurus myosuroides); conditions: for Blackgrass plant response rating (0 to 100 scale): 0 is no effect
# Procedure, shortened: as §1
# [5] = tested on: soybean (Glycine max); conditions: for Plant response rating, Soybean: Postemergence
# Procedure, shortened: as §1
# [6] = tested on: johnsongrass (Sorghum halepense)
# Procedure, shortened: as §1
# [7] = tested on: velvetleaf (Abutilon theophrasti); conditions: for Plant response rating, Velvetleaf: Postemergence
# Procedure, shortened: as §1
# [8] = tested on: corn (Zea mays)
# Procedure, shortened: as §1
# [9] = tested on: kochia (Kochia scoparia)
# Procedure, shortened: as §1
# [10] = tested on: ragweed (common ragweed, Ambrosia elatior); conditions: for Plant response rating, Ragweed: Postemergence
# Procedure, shortened: as §1
# [11] = tested on: woolly cupgrass (Eriochloa villosa)
# Procedure, shortened: as §1
# [12] = tested on: giant foxtail (Setaria faberii)
# Procedure, shortened: as §1
# [13] = tested on: pigweed (Amaranthus retroflexus)
# Procedure, shortened: as §1
# [14] = 62 g ai/ha, postemergence, 100 is complete control, 13 to 15 days
# [15] = Postemergence, 31 g ai/ha, 0 to 100 scale (0 no effect, 100 complete control)
# [16] = Postemergence, 125 g ai/ha, scale 0 to 100 (0 no effect, 100 complete control)
# [17] = Postemergence, 250 g ai/ha, scale 0 to 100 (0 no effect, 100 complete control), 13 to 15 days
# [18] = 31 g ai/ha, 0 to 100 scale (0 no effect, 100 complete control)
# [19] = 125 g ai/ha, scale 0 to 100 (0 no effect, 100 complete control)
# [20] = 250 g ai/ha, scale 0 to 100 (0 no effect, 100 complete control), 13 to 15 days
# [21] = Postemergence, 62 g ai/ha, scale 0 to 100 (0 no effect, 100 complete control)
# [22] = 62 g ai/ha, scale 0 to 100 (0 no effect, 100 complete control)
# [23] = 31 g ai/ha, postemergence, scale 0 to 100, 0 is no effect, 100 is complete control
# [24] = Postemergence, 250 g ai/ha, scale 0 to 100 (0 no effect, 100 complete control)
# [25] = 250 g ai/ha, scale 0 to 100 (0 no effect, 100 complete control)
# [26] = 62 g ai/ha, postemergence, 0 is no effect, 100 is complete control, 13 to 15 days
smiles,measurement,setting,value
O=C1CCCC(O)=C1C(=O)c1cnc(-c2cccc(F)c2)n(C2CCCCC2)c1=O [Compound 187],"Bromegrass, Downy plant response rating (0 to 100 scale)",[1]; [14],30
same,"Plant response rating, Bromegrass, Downy",[1]; [15],5
same,"Plant response rating, Bromegrass, Downy",[1]; [16],35
same,"Plant response rating, Bromegrass, Downy",[1]; [17],40
same,"Plant response rating, Surinam Grass",[2]; [18],65
same,"Plant response rating, Ryegrass, Italian",[3]; [18],0
same,"Plant response rating, Ryegrass, Italian",[3]; [19],10
same,"Plant response rating, Ryegrass, Italian",[3]; [20],30
same,Blackgrass plant response rating (0 to 100 scale),[4]; [14],0
same,"Plant response rating, Blackgrass",[4]; [15],0
same,"Plant response rating, Blackgrass",[4]; [16],5
same,"Plant response rating, Blackgrass",[4]; [17],5
same,"Plant response rating, Soybean",[5]; [18],98
same,"Plant response rating, Soybean",[5]; [19],100
same,"Plant response rating, Soybean",[5]; [20],100
same,"Plant response rating, Johnsongrass",[6]; [15],90
same,"Plant response rating, Johnsongrass",[6]; [16],100
same,"Plant response rating, Johnsongrass",[6]; [17],100
same,"Plant response rating, Velvetleaf",[7]; [18],90
same,"Plant response rating, Velvetleaf",[7]; [19],100
same,"Plant response rating, Velvetleaf",[7]; [20],100
same,"Plant response rating, Corn",[8]; [15],50
same,"Plant response rating, Corn",[8]; [16],75
same,"Plant response rating, Corn",[8]; [17],80
same,"Plant response rating, Kochia",[9]; [15],40
same,"Plant response rating, Kochia",[9]; [16],70
same,"Plant response rating, Kochia",[9]; [17],80
same,"Plant response rating, Ragweed",[10]; [18],95
same,"Plant response rating, Ragweed",[10]; [19],100
same,"Plant response rating, Ragweed",[10]; [20],100
same,"Plant response rating, Cupgrass, Woolly",[11]; [15],80
same,"Plant response rating, Cupgrass, Woolly",[11]; [16],85
same,"Plant response rating, Cupgrass, Woolly",[11]; [17],95
same,"Plant response rating, Foxtail, Giant",[12]; [15],98
same,"Plant response rating, Foxtail, Giant",[12]; [16],100
same,"Plant response rating, Foxtail, Giant",[12]; [17],100
same,"Plant response rating, Pigweed",[13]; [15],100
same,"Plant response rating, Pigweed",[13]; [16],100
same,"Plant response rating, Pigweed",[13]; [17],100
COCCn1c(-c2cccc(F)c2)ncc(C(=O)C2=C(O)C3CCC(C3)C2=O)c1=O (stereo not shown) [Compound 235],"Plant response rating, Bromegrass, Downy",[1]; [15],10
same,"Plant response rating, Bromegrass, Downy",[1]; [21],30
same,"Plant response rating, Bromegrass, Downy",[1]; [16],50
same,"Plant response rating, Bromegrass, Downy",[1]; [17],85
same,"Plant response rating, Surinam Grass",[2]; [18],80
same,"Plant response rating, Surinam Grass",[2]; [22],90
same,"Plant response rating, Surinam Grass",[2]; [20],100
same,"Plant response rating, Ryegrass, Italian",[3]; [18],30
same,"Plant response rating, Ryegrass, Italian",[3]; [22],30
same,"Plant response rating, Ryegrass, Italian",[3]; [20],60
same,"Plant response rating, Blackgrass",[4]; [15],45
same,"Plant response rating, Blackgrass",[4]; [21],60
same,"Plant response rating, Blackgrass",[4]; [16],70
same,"Plant response rating, Soybean",[5]; [18],98
same,"Plant response rating, Soybean",[5]; [22],100
same,"Plant response rating, Soybean",[5]; [20],100
same,"Plant response rating, Johnsongrass",[6]; [15],70
same,"Plant response rating, Johnsongrass",[6]; [21],80
same,"Plant response rating, Johnsongrass",[6]; [16],100
same,"Plant response rating, Johnsongrass",[6]; [17],100
same,"Plant response rating, Velvetleaf",[7]; [18],95
same,"Plant response rating, Velvetleaf",[7]; [22],100
same,"Plant response rating, Velvetleaf",[7]; [20],100
same,"Plant response rating, Corn",[8]; [15],95
same,"Plant response rating, Corn",[8]; [21],100
same,"Plant response rating, Corn",[8]; [16],100
same,"Plant response rating, Corn",[8]; [17],100
same,"Plant response rating, Kochia",[9]; [15],98
same,"Plant response rating, Kochia",[9]; [21],100
same,"Plant response rating, Kochia",[9]; [16],100
same,"Plant response rating, Kochia",[9]; [17],100
same,"Plant response rating, Ragweed",[10]; [18],98
same,"Plant response rating, Ragweed",[10]; [22],100
same,"Plant response rating, Ragweed",[10]; [20],100
same,"Plant response rating, Cupgrass, Woolly",[11]; [15],95
same,"Plant response rating, Cupgrass, Woolly",[11]; [21],100
same,"Plant response rating, Cupgrass, Woolly",[11]; [16],100
same,"Plant response rating, Cupgrass, Woolly",[11]; [17],100
same,"Plant response rating, Foxtail, Giant",[12]; [15],98
same,"Plant response rating, Foxtail, Giant",[12]; [21],100
same,"Plant response rating, Foxtail, Giant",[12]; [16],100
same,"Plant response rating, Foxtail, Giant",[12]; [17],100
same,"Plant response rating, Pigweed",[13]; [15],100
same,"Plant response rating, Pigweed",[13]; [21],100
same,"Plant response rating, Pigweed",[13]; [17],100
"COCCCn1c(-c2cccc(C)c2)ncc(C(=O)C2=C(O)CCCC2=O)c1=O [Compound 118, 5-[(2-hydroxy-6-oxo-1-cyclohexane-1-yl)carbonyl]-3-(3-methoxypropyl)-2-(3-methylphenyl)-4(3H)-pyrimidinone]","Plant response rating, Bromegrass, Downy",[1]; [23],0
same,"Bromegrass, Downy plant response rating (0 to 100 scale)",[1]; [14],5
same,"Plant response rating, Bromegrass, Downy",[1]; [16],30
same,"Plant response rating, Bromegrass, Downy",[1]; [24],35
same,"Plant response rating, Surinam Grass",[2]; [19],75
same,"Plant response rating, Surinam Grass",[2]; [25],90
same,"Ryegrass, Italian plant response rating (0 to 100 scale)",[3]; [26],5
same,"Plant response rating, Ryegrass, Italian",[3]; [19],5
same,"Plant response rating, Ryegrass, Italian",[3]; [25],60
same,"Plant response rating, Blackgrass",[4]; [23],5
same,Blackgrass plant response rating (0 to 100 scale),[4]; [14],10
same,"Plant response rating, Blackgrass",[4]; [16],35
same,"Plant response rating, Blackgrass",[4]; [24],40
same,Soybean plant response rating (0 to 100 scale),[5]; [26],90
same,"Plant response rating, Soybean",[5]; [19],95
same,"Plant response rating, Soybean",[5]; [25],100
same,"Plant response rating, Johnsongrass",[6]; [23],10
same,Johnsongrass plant response rating (0 to 100 scale),[6]; [26],10
same,"Plant response rating, Johnsongrass",[6]; [16],20
same,"Plant response rating, Johnsongrass",[6]; [24],35
same,Velvetleaf plant response rating (0 to 100 scale),[7]; [26],75
same,"Plant response rating, Velvetleaf",[7]; [19],98
same,"Plant response rating, Velvetleaf",[7]; [25],100
same,"Plant response rating, Corn",[8]; [23],0
same,Corn plant response rating (0 to 100 scale),[8]; [26],0
same,"Plant response rating, Corn",[8]; [16],20
same,"Plant response rating, Corn",[8]; [24],25
same,"Plant response rating, Kochia",[9]; [23],45
same,Kochia plant response rating (0 to 100 scale),[9]; [26],65
same,"Plant response rating, Kochia",[9]; [16],70
same,"Plant response rating, Kochia",[9]; [24],98
same,Ragweed plant response rating (0 to 100 scale),[10]; [26],85
same,"Plant response rating, Ragweed",[10]; [19],95
same,"Plant response rating, Ragweed",[10]; [25],98
same,"Plant response rating, Cupgrass, Woolly",[11]; [23],65
same,"Cupgrass, Woolly plant response rating (0 to 100 scale)",[11]; [26],70
same,"Plant response rating, Cupgrass, Woolly",[11]; [16],75
same,"Plant response rating, Cupgrass, Woolly",[11]; [24],95
same,"Plant response rating, Foxtail, Giant",[12]; [23],75
same,"Foxtail, Giant plant response rating (0 to 100 scale)",[12]; [26],80
same,"Plant response rating, Foxtail, Giant",[12]; [16],85
same,"Plant response rating, Foxtail, Giant",[12]; [24],95
same,"Plant response rating, Pigweed",[13]; [23],85
same,Pigweed plant response rating (0 to 100 scale),[13]; [26],100
same,"Plant response rating, Pigweed",[13]; [16],100
same,"Plant response rating, Pigweed",[13]; [24],100

# — US8952024B2, “Herbicidal pyrimidone derivatives” (E I du Pont de Nemours and Company, priority 2009, dated 2015)
